Assay results reported in US5476952A, “Antitumor cyclopentnaphthoquinone and cyclopentanthraquinone derivatives” (Sloan-Kettering Institute for Cancer Research, priority 1993, dated 1995).
Like-named read-outs stand apart in the source and are kept apart here.

Experiments:
L1210 = assay: in vitro cell growth inhibition, L1210; type: cell-based
From the text: (§1) Compounds of the invention show antitumor activity. The antitumor activity of the representative cyclopentanthraquinone derivatives is compared with Mitomycin C, m-AMSA and adriamycin.

L1210 cells = assay: effect against L1210 in mice (mice inoculated i.p. with L1210 cells); type: in vivo; parameters: AST / survival time: unit not given here; details: for % ILS (increase in lifespan): 25% or greater considered significant; for survival time: individual mice
From the text: *Increase in lifespan of 25% or greater is considered to be significant.
Mice dying of toxicity (t) not included in AST evaluation.

human leukemic HL-60 = assay: in vitro cell growth inhibition, HL-60; type: cell-based; details: for IC50 / antitumor activity against human leukemic HL-60 cell growth (in words): HL-60, in vitro
From the text: as §1

MT4 = assay: in vitro cell growth inhibition, MT4; type: cell-based, human; details: for IC50 / antitumor activity against MT4 cell growth (in words): MT4, in vitro
From the text: as §1

DNA = details: literature; cited from earlier work
[1] = system: certain tumor cell growth; details: literature; without alkylating side chain; cited from earlier work
[2] = literature; cited from earlier work
[3] = L1210, in vitro, read-out: IC50 for Cell Growth Inhibition, L1210
[4] = Mus musculus, L1210, in vitro, read-out: IC50 for Cell Growth Inhibition, L1210

SMILES | antitumor activity against L1210 cell growth (in words) (L1210; L1210, in vitro) | AST (L1210 cells; 2.5 mg/kg QD x5, i.p.) | N/T (L1210 cells; 2.5 mg/kg QD x5, i.p.) | % ILS (increase in lifespan) (L1210 cells; 2.5 mg/kg QD x5, i.p.) [%] | day 4 AWC (L1210 cells; 2.5 mg/kg QD x5, i.p.) | N/T (L1210 cells; 5.0 mg/kg QD x5, i.p.) | day 4 AWC (L1210 cells; 5.0 mg/kg QD x5, i.p.) [g] | AST (L1210 cells; 20 mg/kg x1, i.p.) | N/T (L1210 cells; 20 mg/kg x1, i.p.) | % ILS (increase in lifespan) (L1210 cells; 20 mg/kg x1, i.p.) [%] | survival time (L1210 cells; 20 mg/kg x1, i.p.) | IC50 (L1210; [4]) [nM] | also measured
O=C1c2ccccc2C(=O)c2c1cc(OCCN(CCCl)CCCl)c1c2CC2NC12 (stereo not drawn) [compound IIc, 2,3-aziridino-4-[2-bis(2-chloroethyl)amino]-ethoxy-2,3-dihydro-1H-cyclopent [a]anthracene-6,11-dione] | much greater antitumor activity than that of IIa and IIb | 9.0 | 0/3 | 36 | +0.3 g | 0/3 | -0.3 | 9.0 | 0/1 | 36 | 9 | – | IC50 (L1210; [3]): 64 nM; AST (L1210 cells; 5.0 mg/kg QD x5, i.p.): 9.0; % ILS (increase in lifespan) (L1210 cells; 5.0 mg/kg QD x5, i.p.): 36%; day 7 AWC (L1210 cells; 5.0 mg/kg QD x5, i.p.): +1.7 g; day 4 AWC (L1210 cells; 20 mg/kg x1, i.p.): -2.5 g; day 7 AWC (L1210 cells; 20 mg/kg x1, i.p.): +1.5 g; IC50 (human leukemic HL-60): 75 nM; antitumor activity against human leukemic HL-60 cell growth (in words) (human leukemic HL-60): significant antitumor activity; potency relative to m-AMSA against HL-60 cell growth (human leukemic HL-60; compared with m-AMSA, HL-60): as potent as m-AMSA; IC50 (MT4): 69 nM; antitumor activity against MT4 cell growth (in words) (MT4): significant antitumor activity; activity relative to m-AMSA against MT4 cell growth (MT4; compared with m-AMSA, MT4): half as active as m-AMSA
CO[C@@]12[C@H](COC(N)=O)C3=C(C(=O)C(C)=C(N)C3=O)N1C[C@@H]1N[C@@H]12 [Mit-C, reference compound] | – | 12.7 | 0/3 | 92 | +1.0 g | 0/3 | -2.0 | 11.0 | 0/1 | 67 | 11 | 5 | interaction with DNA (in words) (DNA): bind covalently at the minor groove of DNA double strand forming interstrand cross-links; day 7 AWC (L1210 cells; 2.5 mg/kg QD x5, i.p.): -0.3 g
Cc1cc(O)c2c(c1)C(=O)c1cccc(O)c1C2=O [chrysophanol] | – | – | – | – | – | – | – | – | – | – | – | – | activity of the parent natural product (in words) [1]: inactive
O=C1c2ccccc2C(=O)c2c1ccc1c2CC2NC12 (stereo not drawn) [compound IIa, 2,3-aziridino-2,3-dihydro-1H-cyclopent[a]anthracene-6,11-dione] | less activity | – | – | – | – | – | – | – | – | – | – | – | IC50 (L1210; Mus musculus, L1210, read-out: IC50 for Cell Growth Inhibition, L1210): 9090 nM
O=C1c2ccccc2C(=O)c2c1cc(OCCN(CCCl)CCCl)c1c2CCC1 [compound IIb, 4-[2-bis(2-chloroethyl)amino]ethoxy-2,3-dihydro-1H-cyclopent[a]anthracene-6,11-dione] | significant antitumor activity | 9.0 | 0/3 | 36 | +0.3 g | 0/3 | -0.3 | 9.0 | 0/1 | 36 | 9 | – | IC50 (L1210; [3]): 290 nM; day 7 AWC (L1210 cells; 2.5 mg/kg QD x5, i.p.): +1.0 g; AST (L1210 cells; 5.0 mg/kg QD x5, i.p.): 9.0; % ILS (increase in lifespan) (L1210 cells; 5.0 mg/kg QD x5, i.p.): 36%; day 7 AWC (L1210 cells; 5.0 mg/kg QD x5, i.p.): +0.7 g; day 4 AWC (L1210 cells; 20 mg/kg x1, i.p.): -2.5 g; day 7 AWC (L1210 cells; 20 mg/kg x1, i.p.): +0.5 g; IC50 (human leukemic HL-60): 180 nM; antitumor activity against human leukemic HL-60 cell growth (in words) (human leukemic HL-60): significant antitumor activity; IC50 (MT4): 110 nM; antitumor activity against MT4 cell growth (in words) (MT4): significant antitumor activity
COc1cccc2c1C(=O)c1c(O)c3c(c(O)c1C2=O)C[C@@](O)(C(=O)CO)C[C@@H]3O[C@H]1C[C@H](N)[C@H](O)[C@H](C)O1 [Adriamycin, reference compound] | – | – | – | – | – | – | – | – | – | – | – | 20 | IC50 (human leukemic HL-60; Homo sapiens): 30 nM
Cc1cc(O)c2c(c1)C(=O)c1cc(O)cc(O)c1C2=O [emodin] | – | – | – | – | – | – | – | – | – | – | – | – | activity of the parent natural product (in words) [1]: inactive
CCN(CC)CCNc1ccc(C)c2sc3ccccc3c(=O)c12 [lucanthone] | – | – | – | – | – | – | – | – | – | – | – | – | interaction with DNA (in words) (DNA): capable of intercalating into DNA and monoalkylating the DNA; antischistosomal and antitumor activity (in words) [2]: potent antischistosomal and antitumor activity
COc1cc(NS(C)(=O)=O)ccc1Nc1c2ccccc2nc2ccccc12 [m-AMSA, reference compound] | – | – | – | – | – | – | – | – | – | – | – | 4 | IC50 (human leukemic HL-60; Homo sapiens): 80 nM; IC50 (MT4; Homo sapiens): 34 nM
